Tests used:
mutant TNF-R1 = target: T1, mutant TNF-R1 (Homo sapiens, UniProt P19438, F141E/Q111E); assay: Isothermal titration calorimetry, binding to mutant TNF-R1 (82E, 112E); conditions: ITC, TNF-R1 mutated to 82E and 112E
T1 construct: The ectodomain of wild type TNF receptor 1 was obtained by PCR from pKP13; made in house
T1 sequence (P19438 30-211 Q111E/F141E limits assumed): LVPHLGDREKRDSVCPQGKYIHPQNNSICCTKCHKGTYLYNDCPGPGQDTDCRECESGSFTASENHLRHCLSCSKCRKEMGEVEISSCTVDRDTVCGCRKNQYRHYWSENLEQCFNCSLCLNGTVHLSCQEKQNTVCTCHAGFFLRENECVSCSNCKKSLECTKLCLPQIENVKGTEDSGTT
Description: The ectodomain of wild type TNF receptor 1 was obtained by PCR from pKP13 (as described in Beutler et al., Annu. Rev. Biochem. 57, 505-518 (1988)) with 5′ primer AAAAAACATATGTACCCCTCAGGGGTTATTGG (SEQ ID NO:2) and 3′ primer CCGCTCGAGTCAATGATGATG ATGATG ATGTGTGGTGCCTGAGTCCTCAG, (SEQ ID NO:3) and constructed into PET21 (Novagen, San Diego, Calif.) between Nde1 and XhoT, verified by sequencing. Mutant TNF receptor 1 was obtained from site-directed mutagenesis by using a QuikChange mutagenesis kit (Stratagene, La Jolla, Calif.). The plasmid was then transformed into Origami™ (DE3) (Novagen, San Diego, Calif.). The cells were grown until A600 was 0.6 and were induced by addition of 0.2 mM of IPTG. The cells were then induced for 3 h and harvested by centrifugation at 3500 rpm for 10 min. The wild type and mutant TNF-R1 were all expressed in the inclusion bodies of the cells and were extracted and refolded as described in Lin et al., Biotechniques 11, 748 (December 1991). […]
The binding thermodynamics of inhibitors to the TNF receptor was measured by isothermal titration calorimetry (ITC) using a high-precision VP-ITC titration calorimetric system (MicroCal Inc, Northampton, Mass.). […] Data were analyzed and fitted using the data analysis software supplied by MicroCal (Origin version 5.0).

[1] = system: TNF-α signaling in L929 cells; assay: Inhibition of TNF-α signaling in L929 cells (western blot); type: cell-based, murine; conditions: 2 h pretreatment, TNF-α 20 ng/mL
Experimental: The effect of compound I-9 on TNF-α signaling was examined in L929 cells (American Type Culture Collection, Manassas, Va.). Cells were cultured in RPMI (Invitrogen) containing 5% fetal bovine serum. Cells (1×10^6/well) were cultured in 6-well plates for 12 h, treated with or without small molecule for 2 h, and then stimulated with TNF-α at 20 ng/mL for the indicated periods. Cells were then washed with ice-cold phosphate-buffered saline and lysed with lysis buffer. Cell lysates ([…]) were separated by 12% SDS-PAGE, electroblotted onto nitrocellulose membrane (Osmonics, Westborough, Mass.), and probed with anti-phospho-IκBα, anti-IκBα, anti-phospho-p38, anti-p38, and anti-β-actin antibodies (Cell Signaling Technology, Inc., Beverly, Mass.) and developed using an enhanced chemiluminescence (ECL) system (Amersham Biosciences, Piscataway, N.J.).

For CC(=O)Oc1ccc(C(C)(c2ccc(OC(C)=O)cc2)c2ccc(OC(C)=O)cc2)cc1 [Compound I-9, 1,1,1-Tris-(4-acetoxyphenyl)ethane], the “binding to the mutant receptor” value (mutant TNF-R1) was “no longer bound”, the “production of phospho-IκBα following TNF-α treatment” value [1] was “reduced” and the “production of phospho-p38 following TNF-α treatment” value [1] was “reduced”.

Source: patent US9096607B2, “Tumor necrosis factor inhibitors” (THE TRUSTEES OF THE UNIVERSITY OF PENNSYLVANIA, priority 2005, dated 2015)
